According to patent US20240237690A1, “Licorice Compounds and Their Use as Flavor Modifiers” (Firmenich SA, priority 2021, published 2024):

What was measured:
Type in all cases: in vivo, human
[1] = system: sweet taste of water solution containing 4% sucrose; experiment: Sensory testing by trained taste panel: sweet taste, sucrose reference; settings: mean of 20 trained panelists, scale −5 to 5; compound at 10 or 40 ppm; 0 = reference water solution containing 4% sucrose
Text: (§1) A panel consisted in 20 trained taste panelists evaluated samples of each of Compounds 101-106 at 10 or 40 ppm for taste properties (sweet, licorice, lingering, bitter or astringent) on a scale of −5 to 5 (−5 to −4 denoted strong masking effect, −4 to −3 denoted moderate masking effect, −3 to −2 denoted masking effect, −2 to 0 denoted weak masking effect, while 5 to 4 denoted strong enhancing effect, 4 to 3 denoted moderate enhancing effect, 3 to 2 denoted enhancing effect, 2 to 0 denoted weak enhancing effect, 0 being equal to the intensity of a reference water solution containing 4% sucrose or 0.02% SG95 (>95% steviol glycosides) or 10 ppm mixture of Limonin, Naringin, and Normilin (for bitter and astringent). Note that ED and HED refers to eriodictyol or homoeriodictyol, respectively, at a concentration of 40 ppm.

[2] = system: bitter taste of 10 ppm mixture of Limonin, Naringin, and Normilin; experiment: Sensory testing by trained taste panel: bitter taste, citrus bitter mixture; settings: mean of 20 trained panelists, scale −5 to 5, compound at 10 or 40 ppm, ED at 40 ppm, 0 = reference 10 ppm mixture of Limonin
Text: as §1

[3] = system: lingering taste of 0.02% SG95 (>95% steviol glycosides); experiment: Sensory testing by trained taste panel: lingering, SG95 reference; settings: mean of 20 trained panelists, scale −5 to 5; compound at 10 or 40 ppm; 0 = reference 0.02% SG95
Text: as §1

[4] = system: astringent taste of 10 ppm mixture of Limonin, Naringin, and Normilin; experiment: Sensory testing by trained taste panel: astringent taste, citrus bitter mixture; settings: mean of 20 trained panelists, scale −5 to 5, compound at 10 or 40 ppm, ED at 40 ppm, 0 = reference 10 ppm mixture of Limonin
Text: as §1

| SMILES | Sweet (sucrose) [1] | Bitter (Limonin, Naringin, and Normilin) [2] | Lingering (SG95) [3] | Astringent (Limonin, Naringin, and Normilin) [4] |
| --- | --- | --- | --- | --- |
| O=C1C[C@@H](c2ccc(O[C@@H]3O[C@H](CO)[C@@H](O)[C@H](O)[C@H]3O)cc2)Oc2cc(O)ccc21 [Compound 101, liquiritin] | Enhance (3 to 2 denoted enhancing effect) | Mask (−3 to −2 denoted masking effect) |  |  |
| O=C1C[C@@H](c2ccc(O)c(O)c2)Oc2cc(O)cc(O)c21 [ED, eriodictyol, reference compound] |  | Mask (−3 to −2 denoted masking effect) |  |  |
| O=C1C[C@@H](c2ccc(O)cc2)Oc2cc(O)ccc21 [Compound 102, liquiritigenin] |  | Mask (−3 to −2 denoted masking effect) | Mask (−3 to −2 denoted masking effect) | Mask (−3 to −2 denoted masking effect) |
| O=C(/C=C/c1ccc(O)cc1)c1ccc(O)cc1O [Compound 104, isoliquiritigenin] | Enhance (3 to 2 denoted enhancing effect) |  |  |  |
